Measured values: paper PMC2642990, “The Glycogen-Binding Domain on the AMPK β Subunit Allows the Kinase to Act as a Glycogen Sensor” (Cell Metabolism, 2009)

Tests used:
[1] = target: T1, recombinant AMPK complex (myc-α1:β1:γ1) (Rattus norvegicus, UniProt P80386); assay: recombinant wild-type AMPK expressed in CCL13 cells, assayed in anti-myc immunoprecipitates; assay type: biochemical; conditions: 20 mM; Figure 5D
T1 construct: recombinant AMPK complex (myc-α1:β1:γ1) containing full-length (1–270) or truncated β1 subunit lacking the GBD (172–270); made in house; host or cells: human CCL13 cells, co-transfected; isolated by anti-myc immunoprecipitation
T1 sequence (P80386 whole entry, the tested form may be a part): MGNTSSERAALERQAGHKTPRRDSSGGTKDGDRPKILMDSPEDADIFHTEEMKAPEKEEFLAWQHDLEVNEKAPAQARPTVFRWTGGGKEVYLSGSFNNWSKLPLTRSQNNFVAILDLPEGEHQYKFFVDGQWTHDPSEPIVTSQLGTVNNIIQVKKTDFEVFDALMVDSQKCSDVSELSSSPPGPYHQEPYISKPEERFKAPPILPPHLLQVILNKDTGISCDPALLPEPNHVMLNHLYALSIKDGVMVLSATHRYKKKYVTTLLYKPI
T1 sequence (P54645 13-559 partner limits assumed): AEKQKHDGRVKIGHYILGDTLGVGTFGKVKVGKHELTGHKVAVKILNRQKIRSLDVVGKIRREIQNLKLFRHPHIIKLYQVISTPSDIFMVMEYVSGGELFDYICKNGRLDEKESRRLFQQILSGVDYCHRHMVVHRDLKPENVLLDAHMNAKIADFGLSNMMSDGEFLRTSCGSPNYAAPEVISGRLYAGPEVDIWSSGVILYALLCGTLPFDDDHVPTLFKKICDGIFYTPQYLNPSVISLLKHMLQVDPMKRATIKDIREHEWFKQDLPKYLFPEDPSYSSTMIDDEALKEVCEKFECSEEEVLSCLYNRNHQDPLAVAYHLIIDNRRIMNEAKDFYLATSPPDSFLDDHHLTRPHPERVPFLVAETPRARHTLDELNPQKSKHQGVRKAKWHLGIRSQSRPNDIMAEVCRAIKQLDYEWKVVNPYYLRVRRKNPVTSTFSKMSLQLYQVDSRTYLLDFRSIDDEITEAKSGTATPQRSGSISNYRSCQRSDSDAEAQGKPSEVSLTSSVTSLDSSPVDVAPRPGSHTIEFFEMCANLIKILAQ
T1 sequence (P80385 whole entry partner, the tested form may be a part): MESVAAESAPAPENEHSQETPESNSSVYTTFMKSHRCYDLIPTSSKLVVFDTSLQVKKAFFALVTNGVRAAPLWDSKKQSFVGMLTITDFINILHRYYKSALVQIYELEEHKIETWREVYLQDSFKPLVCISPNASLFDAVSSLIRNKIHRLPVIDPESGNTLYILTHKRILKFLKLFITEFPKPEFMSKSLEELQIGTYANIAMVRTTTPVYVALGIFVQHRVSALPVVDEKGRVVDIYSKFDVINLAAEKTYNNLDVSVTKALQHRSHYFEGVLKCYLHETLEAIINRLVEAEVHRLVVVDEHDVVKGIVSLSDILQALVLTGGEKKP
Excerpt: Figure 2 Allosteric Inhibition of AMPK by Different Glycogen Preparations (A) Concentration dependence of inhibition of native rat liver AMPK by preparations of bovine and rat liver glycogen; glycogen concentrations expressed as glucose produced after total hydrolysis. Data were fitted to an IC50 equation (see Supplemental Experimental Procedures), and curves were generated using the estimated best-fit parameters. (B) Concentration dependence of inhibition of native rat liver AMPK by bovine liver glycogen in the presence and absence of 200 μM AMP; curves were generated as in (A). (C) Inhibition by bovine liver glycogen of recombinant AMPK complex (myc-α1:β1:γ1) containing full-length (1–270) or truncated β1 subunit lacking the GBD (172–270). Complexes were expressed in CCL13 cells and purified by immunoprecipitation prior to assay with or without glycogen (200 mM glucose equivalents). Data are means ± SEM (n = 3). ^∗Activity different from control without glycogen by t test (p < 0.05). […] Results are expressed as percentages of the activity in controls without glycogen, and data are mean ± SEM (n = 3). […]

[2] = target: T2, rat AMPK-α1 kinase domain (Rattus norvegicus, UniProt P54645, T183D); assay: kinase assay of bacterially expressed α1 kinase domain; assay type: biochemical; conditions: bacterially expressed (GST fusion; T172D mutant); data not shown
T2 construct: a bacterially expressed GST fusion of the rat AMPK-α1 kinase domain; GST; made in house; host or cells: bacteria
T2 sequence (P54645 27-279 T183D): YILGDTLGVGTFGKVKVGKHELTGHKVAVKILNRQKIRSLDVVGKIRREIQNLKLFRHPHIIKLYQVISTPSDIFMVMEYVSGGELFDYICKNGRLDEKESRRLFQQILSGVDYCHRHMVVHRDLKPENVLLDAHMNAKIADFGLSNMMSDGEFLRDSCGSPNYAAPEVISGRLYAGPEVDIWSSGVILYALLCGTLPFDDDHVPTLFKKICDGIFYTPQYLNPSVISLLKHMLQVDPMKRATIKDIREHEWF

## OC[C@H]1O[C@H](OC[C@H]2OC(O)[C@H](O)[C@@H](O)[C@@H]2O)[C@H](O)[C@@H](O)[C@@H]1O (some centres unmarked) [isomaltose]
[1]
  inhibition of wild-type recombinant α1β1γ1: inhibited
[2]
  inhibition of isolated α1 kinase domain: did not inhibit
